Laboratory results as given in patent US20100069476A1, “COMPOSITIONS AND METHODS FOR REDUCTION OF CUTANEOUS PHOTOAGEING” (MITSUI NORIN CO., LTD, priority 2005, published 2010).

What was measured:
[1] = tested on: UV-induced markers of oxidative stress; assay: UV-induced markers of oxidative stress and skin appearance, UVB one month on alternate days; format: in vivo, mice
From the text: In another exemplary treatment, mice were exposed to UVB (90 mJ/cm^2) for a period of one month on alternate days with or without polyphenone E in the drinking water (0.2%, w/v). Remarkably, this protocol inhibited UV-induced markers of oxidative stress, however, to a lesser extent than topical treatment.

[2] = tested on: oxidation of proteins in the skin; assay: UVB-induced oxidation of proteins in the skin (protein carbonyl formation, OxyBlot western blot); format: in vivo, mice; details: EGCG about 1 mg/cm^2, ascorbic acid about 0.5 mg/cm^2, topical
Experimental: (§1) Hydrophilic cream was used as a vehicle.
FIG. 4 depicts a western blot analysis using antibodies against carbonyl-containing proteins. Protein oxidation was determined following western blot analysis by using OxyBlot Protein Oxidation Detection kit (Intergen Company, Purchase, N.Y.).

[3] = tested on: SKH-1 hairless mice; details: for prevention of UVB-induced skin damage as measured by the bi-fold thickness test: topical at optimum dosages (AA 0.5 mg/cm^2, EGCG 1 mg/cm^2), UVB 90 mJ/cm^2 two months on alternate days
Experimental: (§2) SKH-1 hairless mice were used at an age of between 6-8 weeks. The mice were UVB exposed (90 mJ/cm^2) for two months on alternate days for the present photoageing model. At the termination of the experiment, mice were sacrificed 24 hr after the last UV exposure, skin biopsies were collected for analyzing various parameters.
Ascorbic acid and EGCG (or polyphenon E) were dissolved at various concentrations in a hydrophilic cream and were topically applied on the mouse skin 25-30 min before each exposure of UVB. […] Therefore, to evaluate the anti-photoaging effects, we used this dose in all the experiments performed.
Bi-fold skin thickness of the UV exposed skin site with or without the treatment of ascorbic acid (AA) and EGCG.
Control experiments were performed to verify skin damage due to UVB exposure at the above dosage regimen. […] In the below experiments, mice were irradiated to UVB (90 mJ/cm^2) for two months on alternate days to effect photoageing of the skin. Mice were topically treated either with AA, EGCG or a combination of AA (unless indicated otherwise at 0.5 mg EGCG/cm^2 skin area) and EGCG (unless indicated otherwise at 1 mg EGCG/cm^2 skin area) before each exposure of the UVB to determine the photoprotective effect of these agents. Hydrophilic cream was used as a vehicle. UVB alone irradiated mice (control) were topically treated with vehicle only before UVB exposure.
Therefore, and based on these findings, dosages of ascorbic acid for selected experiments were maintained at about or below 0.5 mg/cm^2.
To determine if the effect was additive or synergistic, ascorbic acid and EGCG were topically used at the above determined optimum dosages.

[4] = tested on: UVB-induced adverse effects in the skin; assay: Preliminary dose-dependent efficacy against UVB-induced adverse effects in the skin; format: in vivo, mice; details: topical 1 mg EGCG/cm^2 skin area, preliminary studies
Experimental: as §2
Ascorbic acid and EGCG (or polyphenon E) were dissolved at various concentrations in a hydrophilic cream and were topically applied on the mouse skin 25-30 min before each exposure of UVB. In preliminary studies, we tested the efficacy of AA and EGCG dose-dependently against UVB-induced adverse effects in the skin.

[5] = tested on: TIMP; assay: Expression of tissue inhibitor of matrix metalloproteinase in UVB exposed skin; format: in vivo, mice; details: topical
From the text: 5. Tissue inhibitor of matrix metalloproteinase (TIMP).
Most matrix proteins provide tensile strength to the skin, and are therefore thought to be associated with photoageing and/or wrinkling of skin. […] The blots were stripped and re-probed for β-actin antibody to verify equal protein loading and equal transfer of proteins from gel to membrane.

[6] = tested on: H2O2; assay: Intracellular release of H2O2 in skin cells after UVB (dihydrorhodamine 123), topical treatment; format: in vivo, mice; details: for effect on UVB-induced H2O2 production in cells: EGCG about 1 mg/cm^2, ascorbic acid about 0.5 mg/cm^2, topical; for H2O2 production in skin cells, control experiments without UVB: topical treatment individually
Experimental: 2. Hydrogen peroxide production as a marker of oxidative stress.
as §1
After UVB exposure, a single cell suspension from the epidermis and dermis was prepared following procedures well known in the art. H2O2 was assayed using dihydrorhodamine 123 as a fluorescent dye probe. […] Treatment with ascorbic acid and EGCG inhibited UVB-induced H2O2 production in cells.

[7] = tested on: MMP-2, MMP-3, MMP-7 and MMP-9; assay: UVB-induced expression of matrix metalloproteinases by western blot; format: in vivo, mice; details: EGCG about 1 mg/cm^2, ascorbic acid about 0.5 mg/cm^2, topical
From the text: 4. Matrix metalloproteinases, like MMP-2, MMP-3, MMP-7 and MMP-9 which play a major role in degradation of extracellular matrix of the skin and leads to skin aging or wrinkle formation.
as §1
Most matrix proteins provide tensile strength to the skin, and are therefore thought to be associated with photoageing and/or wrinkling of skin. We previously reported that chronic exposure of skin to UVB induces the up-regulation of several MMP, particularly, MMP-2, MMP-3, MMP-7 and MMP-9. […] The blots were stripped and re-probed for β-actin antibody to verify equal protein loading and equal transfer of proteins from gel to membrane.

Row | Compound | chemopreventive efficacy, compared ([1]; UVB 90 mJ/cm^2 one month on alternate days) | skin appearance in comparison to UV alone exposed skin sites ([1]; plus UV exposed mice) | effect on UVB-induced oxidation of proteins [2] | prevention of UVB-induced skin damage as measured by the bi-fold thickness test [3] | dosage up to which photoprotection increased (bi-fold thickness test) ([3]; topical, little or no further beneficial effect at increasing dosages) | chemopreventive effects against UVB radiation [4] | expression of TIMP [5] | effect on UVB-induced H2O2 production in cells [6] | H2O2 production in skin cells, control experiments without UVB [6] | effect on UVB-induced expression of selected MMP [7] | inflammatory reaction of skin ([3]; topical doses substantially above 0.5 mg/cm^2 of skin) | optimum dosage (protection measured by bi-fold skin thickness) ([3]; topical, data not shown)
1 | O=C(O[C@@H]1Cc2c(O)cc(O)cc2O[C@@H]1c1cc(O)c(O)c(O)c1)c1cc(O)c(O)c(O)c1 [EGCG, epigallocatechin gallate] | superior to polyphenone E | relatively better | inhibited UVB-induced oxidation of proteins to some degree | substantially less protection | about 1.0 mg/cm^2 | significant chemopreventive effects | up-regulated | inhibited | did not induce H2O2 production | inhibited UVB-induced expression of selected MMP to at least some degree | – | –
2 | O=C1O[C@H]([C@@H](O)CO)C(O)=C1O [ascorbic acid] | – | – | inhibited UVB-induced oxidation of proteins to some degree | substantially less protection | – | – | up-regulated | inhibited | did not induce H2O2 production | inhibited UVB-induced expression of selected MMP to at least some degree | tended to provoke an inflammatory reaction | about 0.5 mg/cm^2
